Measurements published in the supplement of paper PMC8612539.
In brackets after ≈: the same amount, converted by molar mass.

Tested on: Histophilus somni
Experiment: minimum inhibitory concentration (MIC)
Experimental: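 Broth microdilution MIC (Sensititre BOPO7F bovine plate, CLSI methods) of 19 antimicrobials against field isolates of P. multocida, M. haemolytica, H. somni (deep nasopharyngeal swabs) and E. coli, Enterococcus spp. (rectal swabs) from weaned dairy heifers. Incubation 16-24 h at 35 C. MIC is the lowest concentration preventing visible growth. Values with <= or > lie at the tested range limits. Trimethoprim-sulfamethoxazole is given as the trimethoprim component of a 1:19 mixture.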

CNC(C)C1CCC(N)C(OC2C(N)CC(N)C(OC3OCC(C)(O)C(NC)C3O)C2O)O1 (configuration not stated) [Gentamicin]
Conditions	minimum inhibitory concentration [µg/mL]
isolate (source animal id): 3	8 (≈ 16.8 µM)
isolate (source animal id): 4	8 (≈ 16.8 µM)
isolate (source animal id): 7	4 (≈ 8.38 µM)
isolate (source animal id): 14	4 (≈ 8.38 µM)
isolate (source animal id): 15	16 (≈ 33.5 µM)
isolate (source animal id): 17	≤ 1
isolate (source animal id): 18	16 (≈ 33.5 µM)
isolate (source animal id): 20	≤ 1
isolate (source animal id): 23	16 (≈ 33.5 µM)
isolate (source animal id): 45	4 (≈ 8.38 µM)
isolate (source animal id): 53	4 (≈ 8.38 µM)
isolate (source animal id): 83	16 (≈ 33.5 µM)
isolate (source animal id): 88	4 (≈ 8.38 µM)
isolate (source animal id): 92	16 (≈ 33.5 µM)
isolate (source animal id): 93	4 (≈ 8.38 µM)
isolate (source animal id): 99	16 (≈ 33.5 µM)
isolate (source animal id): 100	16 (≈ 33.5 µM)
isolate (source animal id): 105	16 (≈ 33.5 µM)
isolate (source animal id): 107	16 (≈ 33.5 µM)
isolate (source animal id): 108	16 (≈ 33.5 µM)
isolate (source animal id): 109	16 (≈ 33.5 µM)
isolate (source animal id): 110	16 (≈ 33.5 µM)
isolate (source animal id): 117	4 (≈ 8.38 µM)
isolate (source animal id): 121	4 (≈ 8.38 µM)
isolate (source animal id): 123	8 (≈ 16.8 µM)
isolate (source animal id): 124	8 (≈ 16.8 µM)
isolate (source animal id): 127	8 (≈ 16.8 µM)
isolate (source animal id): 128	8 (≈ 16.8 µM)
isolate (source animal id): 130	> 16
isolate (source animal id): 132	8 (≈ 16.8 µM)
isolate (source animal id): 135	8 (≈ 16.8 µM)
isolate (source animal id): 140	8 (≈ 16.8 µM)
isolate (source animal id): 141	4 (≈ 8.38 µM)
isolate (source animal id): 142	8 (≈ 16.8 µM)
isolate (source animal id): 144	8 (≈ 16.8 µM)
isolate (source animal id): 146	> 16
isolate (source animal id): 147	16 (≈ 33.5 µM)
isolate (source animal id): 151	8 (≈ 16.8 µM)
isolate (source animal id): 153	8 (≈ 16.8 µM)
isolate (source animal id): 154	16 (≈ 33.5 µM)
isolate (source animal id): 156	16 (≈ 33.5 µM)
isolate (source animal id): 157	8 (≈ 16.8 µM)
isolate (source animal id): 176	≤ 1
isolate (source animal id): 183	≤ 1
isolate (source animal id): 186	≤ 1
isolate (source animal id): 196	8 (≈ 16.8 µM)
isolate (source animal id): 198	8 (≈ 16.8 µM)
isolate (source animal id): 200	8 (≈ 16.8 µM)
isolate (source animal id): 206	8 (≈ 16.8 µM)
isolate (source animal id): 208	8 (≈ 16.8 µM)
isolate (source animal id): 210	8 (≈ 16.8 µM)
isolate (source animal id): 212	4 (≈ 8.38 µM)
isolate (source animal id): 215	8 (≈ 16.8 µM)
isolate (source animal id): 216	8 (≈ 16.8 µM)
isolate (source animal id): 218	8 (≈ 16.8 µM)
isolate (source animal id): 219	8 (≈ 16.8 µM)
isolate (source animal id): 224	8 (≈ 16.8 µM)
isolate (source animal id): 228	2 (≈ 4.19 µM)
isolate (source animal id): 230	≤ 1
isolate (source animal id): 233	2 (≈ 4.19 µM)
isolate (source animal id): 238	≤ 1
isolate (source animal id): 239	2 (≈ 4.19 µM)
isolate (source animal id): 241	2 (≈ 4.19 µM)
isolate (source animal id): 242	2 (≈ 4.19 µM)
isolate (source animal id): 243	≤ 1
isolate (source animal id): 245	≤ 1
isolate (source animal id): 246	2 (≈ 4.19 µM)
isolate (source animal id): 247	≤ 1
isolate (source animal id): 248	≤ 1
isolate (source animal id): 250	≤ 1
isolate (source animal id): 251	≤ 1
isolate (source animal id): 252	2 (≈ 4.19 µM)
isolate (source animal id): 254	≤ 1
isolate (source animal id): 258	4 (≈ 8.38 µM)
isolate (source animal id): 259	8 (≈ 16.8 µM)
isolate (source animal id): 262	4 (≈ 8.38 µM)
isolate (source animal id): 264	4 (≈ 8.38 µM)
isolate (source animal id): 265	> 16
isolate (source animal id): 266	8 (≈ 16.8 µM)
isolate (source animal id): 267	8 (≈ 16.8 µM)
isolate (source animal id): 269	4 (≈ 8.38 µM)
isolate (source animal id): 271	8 (≈ 16.8 µM)
isolate (source animal id): 272	> 16
isolate (source animal id): 274	4 (≈ 8.38 µM)
isolate (source animal id): 276	≤ 1
isolate (source animal id): 278	8 (≈ 16.8 µM)
isolate (source animal id): 280	> 16
isolate (source animal id): 281	8 (≈ 16.8 µM)
isolate (source animal id): 283	4 (≈ 8.38 µM)
isolate (source animal id): 288	16 (≈ 33.5 µM)
isolate (source animal id): 291	8 (≈ 16.8 µM)
isolate (source animal id): 292	16 (≈ 33.5 µM)
isolate (source animal id): 296	8 (≈ 16.8 µM)
isolate (source animal id): 306	8 (≈ 16.8 µM)
isolate (source animal id): 336	16 (≈ 33.5 µM)
isolate (source animal id): 337	16 (≈ 33.5 µM)
isolate (source animal id): 341	8 (≈ 16.8 µM)
